From EP0330826A2, “Use of pyridin-2-ethers or pyridin-2-thioethers with a nitrogen-containing cycloaliphatic ring as agents with an antidepressant activity” (ASTA Pharma Aktiengesellschaft, priority 1988, dated 1989)
Where two headings read alike, the source gives them in different places.

Experiment: Swimming test according to Porsolt (forced swim, motor activity / immobility phases)
Type: in vivo
Details: Ratte; for minimal effective dose: read-out: niedrigste, bereits wirksame Dosis
Excerpt: Die erfindungsgemäßen Verbindungen der Formel I zeigen zum Beispiel im Schwimm-Test nach Porsolt eine gute dosisabhängige antidepressive Wirkung.
Der Schwimm-Text an der Ratte erfolgt in Anlehnung an die Methode von Porsolt (Porsolt, R.D., A. Bertin and M. Ialfre, 1977, Behavioral despair in mice, Arch. Intern. Pharmacodyn. Ther. 229, 327): Hierzu werden Ratten einzeln in einen mit Wasser gefüllten Plastikbehälter gesetzt. Die Höhe des Behälters ist 30 cm, die Länge beträgt 35 cm und die Breite 20 cm. Das Wasser hat eine Temperatur von 25° C und die Tiefe ist 20 cm. Die Schwimmaktivitäts- beziehungsweise die Immobilisationsphasen der Tiere werden mit Hilfe eines motor activity meters über 15 Minuten in einem Abstand von 1 Minute (Impulse/Min.) registriert. Im Normalfall (das heißt ohne Antidepressivum) machen die Tiere nur für kurze Zeit Schwimmbewegungen und lassen sich dann treiben. Die Zunahme der Aktivitäts- beziehungsweise Abnahme der Immobilisationsphasen (die Tiere schwimmen nicht, sondern lassen sich treiben) gilt als Maß für die antidepressive Wirkung einer Substanz. Die antidepressive Wirkung wird als Wirkung in % für eine bestimmte Dosis antidepressive Wirksubstanz angegeben bezogen auf eine Kontrollgruppe, die keine Wirkstubstanz bekommen hat.

Question: For `Clc1cccc(SC2CCNCC2)n1` [Anpirtolin, 6-Chlor-2-piperidyl-(4)-thio-pyridin], which “antidepressive Wirkung (Wirkung in %)” value (Dosis 6 mg/kg Körpergewicht, intraperitoneale Applikation, relative to control group without active substance) is on record?
Answer: 50%

Question: And the minimal effective dose (oral)?
Answer: 20 mg/kg

Question: And the minimal effective dose (iv, intravenös)?
Answer: 0.5 mg/kg
